In article PMC6199744, “Development of Chemical Proteomics for the Folateome and Analysis of the Kinetoplastid Folateome” (ACS Infectious Diseases, 2018):
Read-outs that look alike come from different tables or passages of the source.

Test system: T. brucei lysate proteins
Assay type: binding, Trypanosoma brucei
Conditions: vehicle control = 1

NCCOCCOCC(=O)Nc1nc2ncc(CNc3ccc(C(=O)NC(CCC(=O)O)C(=O)O)cc3)nc2c(=O)[nH]1 (stereo not shown) [compound 6]
fold change (protein TB427.06.2550 RNA-BINDING PROTEIN, PUTATIVE): 0.94 | fold change (protein TB427.06.3500 ENDOSOMAL T[…] RME-8, PUTATIVE): 0.83 | fold change (protein TB427.06.3630 SPHINGOSINE 1-PHOSPHATE LYASE, PUTATIVE): 0.95 | fold change (protein TB427.06.3650 ADP-RI[…], PUTATIVE): 0.98 | fold change (protein TB427.06.3670 PAR[…] COMPONENT, PUTATIVE): 0.88 | fold change (protein TB427.06.4890 S-ADENOSYL[…], PUTATIVE): 1.19 | fold change (protein TB427.06.700 ALANYL-TRNA SYNTHETASE, PUTATIVE): 0.97 | fold change vs vehicle control (protein TB427.07.1300 PROTEIN DISULFIDE ISOMERASE, PUTATIVE): 1.37 | fold change (protein TB427.07.2340 40S RIBOSOMAL PROTEIN S15, PUTATIVE): 0.89 | fold change (protein TB427.07.2770 HY[…], CONSERVED): 0.86 | fold change (protein TB427.07.3530 HY[…], CONSERVED): 0.98 | fold change (protein TB427.07.3980 IMMU[…], PUTATIVE): 0.79 | fold change vs vehicle control (protein TB427.07.4170 FATTY ACID ELONGASE, PUTATIVE): 0.97 | fold change (protein TB427.07.4180 FATTY ACID ELONGASE, PUTATIVE): 0.95 | fold change (protein TB427.07.4970 GLUTAMINE SYNTHETASE, PUTATIVE): 0.85 | fold change (protein TB427.07.7070 HY[…], CONSERVED): 0.92 | fold change vs vehicle control (protein TB427.07.7500 THYMINE-7-HYDROXYLASE, PUTATIVE): 0.35 | fold change (protein TB427.08.2060 HY[…], CONSERVED): 0.87 | fold change (protein TB427.08.2080 HY[…], CONSERVED): 1.19 | fold change (protein TB427.08.3490 HY[…], CONSERVED): 0.98 | fold change (protein TB427.08.3530 GLYCEROL-3-PHOSPHATE DEH[…]+], GLYCOSOMAL): 1 | fold change vs vehicle control (protein TB427.08.3660 PROTEIN TRANSPORT PROTEIN SEC23): 0.99 | fold change vs vehicle control (protein TB427.08.3750 NUCLEOLAR PROTEIN, PUTATIVE): 0.96 | fold change (protein TB427.08.3870 HY[…], CONSERVED): 0.99 | fold change (protein TB427.08.4210 HY[…], CONSERVED): 1.19 | fold change (protein TB427.08.650 CATION-TR[…], PUTATIVE): 0.94 | fold change (protein TB427.10.10020 HY[…], CONSERVED): 0.97 | fold change (protein TB427.10.10350 PROTEIN KINASE, PUTATIVE): 0.86 | fold change (protein TB427.10.10360 MICROTUBULE-[…], PUTATIVE): 0.85 | fold change vs vehicle control (protein TB427.10.10610 PROTEIN TYROSINE PHOSPHATASE, PUTATIVE): 1.7 | fold change vs vehicle control (protein TB427.10.1100 60S RIBOSOMAL PROTEIN L9, PUTATIVE): 1.14 | fold change vs vehicle control (protein TB427.10.12510 P-TYPE H+-ATPASE, PUTATIVE): 1.28 | fold change (protein TB427.10.12710 HEAT SHOCK PROTEIN, PUTATIVE): 1.53 | fold change vs vehicle control (protein TB427.10.14470 INTR[…] PROTEIN IFT140, PUTATIVE): 1.46 | fold change (protein TB427.10.1450 HY[…], CONSERVED): 0.97 | fold change vs vehicle control (protein TB427.10.14550 ATP-DEPENDENT DEAD/H RNA HELICASE, PUTATIVE): 1.1 | fold change vs vehicle control (protein TB427.10.14930 HY[…], CONSERVED): 0.95 | fold change vs vehicle control (protein TB427.10.14950 RNA BINDING PROTEIN, PUTATIVE): 0.98 | fold change (protein TB427.10.14990 INTR[…] PROTEIN IFT80/CHE2, PUTATIVE): 1.1 | fold change (protein TB427.10.15720 […]-ATP-ASE SUBUNIT 9): 0.84 | fold change (protein TB427.10.2020 HEXOKINASE): 1.29 | fold change (protein TB427.10.2290 CHAPERONE PROTEIN DNAJ, PUTATIVE): 0.86 | fold change (protein TB427.10.2440 METACASPASE MCA4): 0.89 | fold change vs vehicle control (protein TB427.10.3470 HY[…], CONSERVED): 1.1 | fold change vs vehicle control (protein TB427.10.5810 HY[…], CONSERVED): 1.81 | fold change (protein TB427.10.6150 […]/BEIGE PROTEIN, PUTATIVE): 0.67 | fold change (protein TB427.10.6310 MAJOR VAULT PROTEIN, PUTATIVE): 0.93 | fold change (protein TB427.10.730 ATP SYNTHASE, PUTATIVE): 0.83 | fold change vs vehicle control (protein TB427.10.7620 MIT[…]-DEPENDENT ZINC METALLOPEPTIDASE, PUTATIVE): 0.98 | fold change vs vehicle control (protein TB427.10.8230 PROTEIN DISULFIDE ISOMERASE): 1.84 | fold change (protein TB427.10.8910 HY[…], CONSERVED): 0.91 | fold change vs vehicle control (protein TB927.10.13290 ETHANOLAMINE PHOSPHOTRANSFERASE (EPT)): 1.14 | fold change vs vehicle control (protein TB927.10.13780 GLYCOGEN SYNTHASE KINASE 3): 0.99 | fold change vs vehicle control (protein TB927.10.14980 INTR[…] PROTEIN IFT52, PUTATIVE): 1.23 | fold change vs vehicle control (protein TB927.10.2640 INTR[…] PROTEIN IFT81, PUTATIVE): 0.98 | fold change vs vehicle control (protein TB927.10.2890 ENOLASE): 1.58 | fold change (protein TB927.10.2980 […]-ATPASE SUBUNIT 11): 0.89 | fold change (protein TB927.10.3990 DHH1): 1.1 | fold change (protein TB927.10.4180 TFIIF-[…] PHOSPHATASE, PUTATIVE): 1 | fold change vs vehicle control (protein TB927.10.4570 […] 2): 1.74 | fold change (protein TB927.10.5370 40S RIBOSOMAL PROTEIN S10, PUTATIVE): 0.89 | fold change (protein TB927.10.5500 HY[…], CONSERVED): 0.92 | fold change vs vehicle control (protein TB927.10.560 40S RIBOSOMAL PROTEINS S11, PUTATIVE): 1.25 | fold change (protein TB927.10.6050 CLATHRIN HEAVY CHAIN): 0.85 | fold change (protein TB927.10.7090 A[…]): 1.37 | fold change vs vehicle control (protein TB927.10.8940 HY[…], CONSERVED): 0.88 | fold change (protein TB927.2.2770 HY[…] TB927 2 2770): 1.1 | fold change (protein TB927.2.3800 MRNA […], PUTATIVE): 0.69 | fold change (protein TB927.3.1240 PROTEIN PHOSPHATASE 2A, PUTATIVE): 0.98 | fold change vs vehicle control (protein TB927.3.2960 INOSINE-ADENOSINE-GUANOSINE-[…]): 1.36 | fold change (protein TB927.3.3270 ATP-DEPENDENT PHOSPHOFRUCTOKINASE): 0.93 | fold change vs vehicle control (protein TB927.3.3450 ADP-RI[…]-LIKE PROTEIN 3A, PUTATIVE): 2.16 | fold change vs vehicle control (protein TB927.3.3490 HIGH MOBILITY GROUP PROTEIN, PUTATIVE): 1.55 | fold change (protein TB927.3.3780 TRYPAREDOXIN): 0.94 | fold change vs vehicle control (protein TB927.3.5120 HY[…], CONSERVED (Ankyrin repeats (3 copies), putative)): 1.38 | fold change vs vehicle control (protein TB927.3.740 HY[…], CONSERVED): 0.97 | fold change vs vehicle control (protein TB927.4.2740 HY[…], CONSERVED (p25-alpha, putative)): 1.55 | fold change (protein TB927.4.3590 T[…] 1-BETA, PUTATIVE): 1.46 | fold change vs vehicle control (protein TB927.4.3820 HY[…], CONSERVED): 0.99 | fold change (protein TB927.4.5310 SERINE/THREONINE-PROTEIN KINASE A, PUTATIVE): 0.95 | fold change (protein TB927.5.1630 HY[…], CONSERVED): 0.86 | fold change (protein TB927.5.3220 SIGNAL PEPTIDASE TYPE I, PUTATIVE): 0.87 | fold change vs vehicle control (protein TB927.5.4440 DYNEIN LIGHT CHAIN, PUTATIVE): 0.98 | fold change (protein TB927.6.2200 HY[…], CONSERVED): 1 | fold change vs vehicle control (protein TB927.7.1750 60S RIBOSOMAL PROTEIN L7, PUTATIVE): 1.31 | fold change (protein TB927.7.2140 HY[…]): 0.83 | fold change vs vehicle control (protein TB927.7.4470 HY[…], CONSERVED): 1.18 | fold change vs vehicle control (protein TB927.7.7430 ATP SYNTHASE ALPHA CHAIN, MIT[…]): 1.18 | fold change (protein TB927.8.1510 ATP-DEPENDENT DEAD/H RNA HELICASE, PUTATIVE): 0.96 | fold change (protein TB927.8.1990 PEROXIDOXIN): 0.97 | fold change (protein TB927.8.4770 SMALL GTP-BINDING PROTEIN RAB18): 0.96
